Common to all, as to type: functional, cell-based
For one test, the system named is HepG2. In words: Cytotoxicity against human HepG2 cells incubated for 48 hrs by MTT assay.
The next test has as its system A549. Kind of test: Cytotoxicity against human A549 cells incubated for 48 hrs by MTT assay. In general terms: Tetrazolium dyes change colour on reduction, which living cells bring about.
A further test relates to HT-29. In words: Cytotoxicity against human HT29 cells incubated for 24 hrs by MTT assay.
A further test deals with MCF7. In words: Cytotoxicity against human MCF7 cells incubated for 24 hrs by MTT assay.
Test [1] is described as follows: (§1) Cytotoxicity against human A375P cells incubated for 24 hrs by MTT assay.
For a further test, the system named is A375P. The test is described as §1.

Active and inactive are the calls of the source. No cut-off for these calls is given here.

What is called IC50 is the concentration that gives 50% inhibition. The low end stands for greater potency in that assay, the high end for weaker potency in that assay.

Take `CC(C)=CCc1cc(C(=O)CCc2ccc(O)c(O)c2)c(O)cc1O`: the result with HepG2 was inactive. Further, the IC50 turned out to be 3.8 µM with A549 (A549, 48 h); 3.8 µM in the test on HT-29 (HT-29, 24 h); 3.8 µM in the test on MCF7 (MCF7, 24 h); 3.8 µM in test [1].

`CC1(C)O[C@H]1Cc1cc(C(=O)/C=C/c2ccc(O)cc2)c(O)cc1O`: the outcome in the test with HepG2, with A549, in the test on HT-29, in the test with MCF7 and with A375P was inactive.

For the compound `CC(C)(O)[C@H](O)Cc1cc(C(=O)/C=C/c2ccc(O)cc2)c(O)cc1O`, the result in the test on HepG2, with A549, in the test with HT-29, in the test on MCF7 and in the test with A375P was inactive.

As to `CC1(C)O[C@H]1Cc1cc(C(=O)/C=C/c2ccc(O)c(O)c2)c(O)cc1O`, the result in the test on HepG2, with A549, in the test with HT-29, with MCF7 and with A375P was inactive.

`CC(C)(O)[C@@H](O)Cc1cc(C(=O)CCc2ccc(O)cc2)c(O)cc1O`: the result in the test on HepG2, with A549, with HT-29, in the test on MCF7 and in the test on A375P was inactive.

In the case of `CC(C)(O)[C@@H](O)Cc1cc(C(=O)CCc2ccc(O)c(O)c2)c(O)cc1O`, the outcome with HepG2, in the test with A549, in the test on HT-29, in the test with MCF7 and with A375P was inactive.

Turning to `CC(C)(O)[C@H]1Cc2cc(C(=O)CCc3ccc(O)cc3)c(O)cc2O1`, the result with HepG2, in the test with A549, in the test with HT-29, in the test with MCF7 and in the test with A375P was inactive.

In the case of `CC(C)(O)[C@H](O)Cc1cc(C(=O)/C=C/c2ccc(O)c(O)c2)c(O)cc1O`, the result in the test with HepG2, in the test on A549, in the test with HT-29, in the test with MCF7 and with A375P was inactive.

For `CC1(C)O[C@@H]1Cc1cc(C(=O)CCc2ccc(O)c(O)c2)c(O)cc1O`, the result in the test with HepG2, with A549, with HT-29, in the test with MCF7 and with A375P was inactive.

In the case of `CC1(C)O[C@@H]1Cc1cc(C(=O)CCc2ccc(O)cc2)c(O)cc1O`, the result in the test on HepG2, with A549, in the test on HT-29, in the test with MCF7 and with A375P was inactive.

(Values after ChEMBL document CHEMBL4819030, “Microbial Transformation of Broussochalcones A and B by Aspergillus niger” (J Nat Prod, 2021).)
